# Measurements taken from US9796713B2, “Tricyclic compounds as alpha-7 nicotinic acetylcholine receptor ligands” (BRISTOL-MYERS SQUIBB COMPANY, priority 2014, dated 2017).
# Molecular target: T1, α-7 nicotinic ACh receptor ion channel (Rattus norvegicus, UniProt Q05941)
# T1 construct: expressed in transfected cells
# Test: FLIPR Ca2+-sensitive fluorescence assay of α7 nicotinic acetylcholine receptor channel function (agonist activity) in HEK 293 cells
# Assay type: cell-based
# Conditions: Table 1; Ca2+ flux, HEK-293 cells expressing the channel
# Method: I) α7 Nicotinic Acetycholine Receptor Binding. Membranes were prepared for binding using HEK293 cells stably expressing the rat α7 nicotinic acetycholine receptor (rat α7 nAChR). Cells were homogenized at 4° C. in hypotonic lysis buffer consisting of 10 mM Tris (pH 7.4), 5 mM EDTA and protease inhibitors and centrifuged at 32000×g for 20 minutes. The pellet was washed once in membrane wash buffer consisting of 50 mM Tris (pH 7.4), 1 mM EDTA and protease inhibitors and centrifuged at 32000×g for 20 minutes. This pellet was then resuspended in assay buffer consisting 50 mM KH2PO4 (pH 7.4 at 25° C.), 1 mM EDTA, 0.005% Triton-X 100 and 0.1% (v/v) Sigma Protease Inhibitor Cocktail. Aliquots were then frozen in dry ice/ethanol and kept at −80° C. until the day of the assay. II) A Ca^2+-Sensitive, Fluorescence-Based Assay α-7 for Nicotinic Acetylcholine Receptor Channel Function in Mammalian Cells (“FLIPR”). Summary: Lead compounds are evaluated for agonist activity at α-7, α3β4, α4αβ2, and α1β1δ1ε sub-types of nicotinic ACh receptor ion channels expressed in mammalian HEK 293 cells. Agonist potency and efficacy values are determined from kinetic fluorescence Ca^2+ influx measurements made using a 384 well FLIPR (Fluorescence Image Plate Reader). The utility of fluorescent indicators for measuring changes in intracellular divalent cation concentrations, particularly Ca^2+, for drug discovery endeavors is well documented (Rudiger, R., et al., Nature Reviews, 2003, 4:579-586; Gonzalez J. E., et al., Receptors and Channels, 2002, 8:283-295). In this assay, channel expressing HEK cell lines seeded in 384 well assay plates are loaded with a membrane permeant fluorescent Ca^2+ indicator dye, whose 510 nm green emission signal increases in response to elevation of intracellular Ca^2+ concentration. The basal fluorescence from the cells is monitored in real time, followed by the acute addition of test compounds. If the compound is an agonist at any of the non-selective cation channels, the latter open and allow the movement of extracellular Ca^2+ ions into the cell cytoplasm, where they bind to the Ca^2+ indicator dye, and produce an increase in fluorescence output signal, which is detected by a cooled CCD imaging camera.
# Materials and Methods: Reagents: The acetomethoxy (AM) ester of the Ca^2+ indicator dye Fluo-4 was obtained from InVitrogen, (Carlsbad, Calif.). Acetylcholine and all buffer constituents were purchased from Sigma Chemical Company, St. Louis, Mo. G418 and Minimal Essential Medium were purchased from InVitrogen Life Technologies, Carlsbad, Calif. Fetal bovine serum was purchased from (InVitrogen, Carlsbad, Calif.).
# Cell Culture: HEK-293 cells were grown in Minimal Essential Medium containing 10% (v/v) fetal bovine serum at 37° C. in a 5% CO2 incubator. HEK-293 cells stably expressing the ion channels were grown in the same medium with the addition of 500 μg/ml G418.
# Ca^2+ flux assays of Ca^2+ channels expressed in HEK-293 cells: HEK-293 cells expressing the ion channels of interest were plated in 384 well, black-walled, clear-bottomed, poly-D-lysine coated plates at a density of ˜20,000 cells/well in 20 μl of Minimal Essential Medium containing 10% (v/v) fetal bovine serum and incubated for 2 days at 29° C. in a 5% CO2 incubator. Prior to assay, cells were loaded with the Fluo-4 AM ester. Cell loading was accomplished by removing the culture medium and replacing it with 30 μl/well of the AM ester of the dye (5 μM) mixed with Hanks Balanced Salt Solution (#14175-095) containing 20 mM HEPES, 2.5 mM probenecid, 0.5 mM CaCl2, 1 mM MgCl2 and 10 μM atropine. Dye loading was allowed to proceed for 90 minutes at room temperature at which time the dye loading solution was removed and replaced with 40 μl/well of Hanks buffer. Cells loaded with dye were loaded onto a FLIPR384 (Molecular Devices, Sunnyvale, Calif.). Fluo-4 dye was excited using the 488 nm line of an argon laser. Emission was filtered using a 540+/−30 nm bandpass filter. […]
# T1 sequence (Q05941 23-502): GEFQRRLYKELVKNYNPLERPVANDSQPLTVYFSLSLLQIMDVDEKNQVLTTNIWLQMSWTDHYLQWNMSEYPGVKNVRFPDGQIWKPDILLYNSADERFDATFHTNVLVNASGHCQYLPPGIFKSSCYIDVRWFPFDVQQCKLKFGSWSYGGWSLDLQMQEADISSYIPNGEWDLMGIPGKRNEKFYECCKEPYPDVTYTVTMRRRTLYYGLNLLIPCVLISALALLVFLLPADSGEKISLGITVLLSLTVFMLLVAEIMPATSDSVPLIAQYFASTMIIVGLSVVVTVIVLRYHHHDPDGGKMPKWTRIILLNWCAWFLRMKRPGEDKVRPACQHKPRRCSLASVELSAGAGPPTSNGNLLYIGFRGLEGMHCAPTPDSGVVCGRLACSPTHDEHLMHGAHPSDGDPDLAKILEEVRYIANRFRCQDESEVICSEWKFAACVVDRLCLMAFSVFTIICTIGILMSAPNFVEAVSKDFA
row,EC50,Structure (SMILES)
1,> 100 µM,"COc1ccc2[nH]nc(C(=O)N3C4CC5CCN(C4)CC53)c2c1 (stereo not shown) [Example 10, (5-methoxy-1H-indazol-3-yl)(hexahydro-2,6-methanopyrrolo[2,3-c]pyridin-1(2H)-yl)methanone]"
2,7.1 µM,"O=C(c1nsc2ccccc12)N1C2CC3CCN(C2)CC31 (stereo not shown) [Example 11, Benzo[d]isothiazol-3-yl(hexahydro-2,6-methanopyrrolo[2,3-c]pyridin-1(2H)-yl)methanone]"
3,> 100 µM,"O=C(c1cc2c(Cl)cccc2s1)N1C2CC3CCN(C2)CC31 (stereo not shown) [Example 12, (4-chlorobenzo[b]thiophen-2-yl)(hexahydro-2,6-methanopyrrolo[2,3-c]pyridin-1(2H)-yl)methanone]"
4,> 100 µM,"O=C(c1ccc(Cl)cc1)N1C2CC3CCN(C2)CC31 (stereo not shown) [Example 13, (4-chlorophenyl)(hexahydro-2,6-methanopyrrolo[2,3-c]pyridin-1(2H)-yl)methanone]"
5,> 100 µM,"Cn1cc(C(=O)N2C3CC4CCN(C3)CC42)c2ccccc21 (stereo not shown) [Example 14, (Hexahydro-2,6-methanopyrrolo[2,3-c]pyridin-1(2H)-yl)(1-methyl-1H-indol-3-yl)methanone]"
6,> 50 µM,"COc1cccc2[nH]nc(C(=O)N3C4CC5CCN(C4)CC53)c12 (stereo not shown) [Example 15, (4-methoxy-1H-indazol-3-yl)(hexahydro-2,6-methanopyrrolo[2,3-c]pyridin-1(2H)-yl)methanone]"

# The remaining lines, values behind:
row,Structure (SMILES),EC50
1,"O=C(c1n[nH]c2ccccc12)N1C2CC3CCN(C2)CC31 (stereo not shown) [Example 1, (hexahydro-2,6-methanopyrrolo[2,3-c]pyridin-1(2H)-yl)(1H-indazol-3-yl)methanone]",0.073 µM
2,"O=C(c1n[nH]c2ccc(Cl)cc12)N1C2CC3CCN(C2)CC31 (stereo not shown) [Example 2, (5-chloro-1H-indazol-3-yl)(hexahydro-2,6-methanopyrrolo[2,3-c]pyridin-1(2H)-yl)methanone]",0.59 µM
3,"O=C(c1n[nH]c2ccc(Br)cc12)N1C2CC3CCN(C2)CC31 (stereo not shown) [Example 3, (5-bromo-1H-indazol-3-yl)(hexahydro-2,6-methanopyrrolo[2,3-c]pyridin-1(2H)-yl)methanone]",0.7 µM
4,"O=C(c1cc2cccc(Cl)c2s1)N1C2CC3CCN(C2)CC31 (stereo not shown) [Example 4, (7-chlorobenzo[b]thiophen-2-yl)(hexahydro-2,6-methanopyrrolo[2,3-c]pyridin-1(2H)-yl)methanone]",> 100 µM
5,"O=C(c1cc2ccccc2o1)N1C2CC3CCN(C2)CC31 (stereo not shown) [Example 5, Benzofuran-2-yl(hexahydro-2,6-methanopyrrolo[2,3-c]pyridin-1(2H)-yl)methanone]",> 100 µM
6,"O=C(c1cc2ccccc2s1)N1C2CC3CCN(C2)CC31 (stereo not shown) [Example 6, Benzo[b]thiophen-2-yl(hexahydro-2,6-methanopyrrolo[2,3-c]pyridin-1(2H)-yl)methanone]",51 µM
7,"O=C(c1n[nH]c2cc(Cl)ccc12)N1C2CC3CCN(C2)CC31 (stereo not shown) [Example 7, (6-chloro-1H-indazol-3-yl)(hexahydro-2,6-methanopyrrolo[2,3-c]pyridin-1(2H)-yl)methanone]",0.057 µM
8,"Cn1nc(C(=O)N2C3CC4CCN(C3)CC42)c2ccccc21 (stereo not shown) [Example 8, (Hexahydro-2,6-methanopyrrolo[2,3-c]pyridin-1(2H)-yl)(1-methyl-1H-indazol-3-yl)methanone]",> 100 µM
9,"COc1ccc2c(C(=O)N3C4CC5CCN(C4)CC53)n[nH]c2c1 (stereo not shown) [Example 9, (6-methoxy-1H-indazol-3-yl)(hexahydro-2,6-methanopyrrolo[2,3-c]pyridin-1(2H)-yl)methanone]",0.26 µM

# Same assay, conditions: Table 2; Ca2+ flux, HEK-293 cells expressing the channel
row,EC50,Structure (SMILES)
1,0.03 µM,"O=C(c1n[nH]c2cc(Cl)ccc12)N1[C@H]2C[C@@H]3CC[N@](C2)C[C@@H]31 [Example 17, (6-chloro-1H-indazol-3-yl)((2S,3aS,6R,7aR)-hexahydro-2,6-methanopyrrolo[2,3-c]pyridin-1(2H)-yl)methanone]"
2,0.055 µM,"O=C(c1n[nH]c2ccccc12)N1[C@H]2C[C@@H]3CC[N@](C2)C[C@@H]31 [Example 18, ((2S,3aS,6R,7aR)-hexahydro-2,6-methanopyrrolo[2,3-c]pyridin-1(2H)-yl)(1H-indazol-3-yl)methanone]"
3,> 100 µM,"O=C(c1cc(-c2ccccc2)[nH]n1)N1[C@H]2C[C@@H]3CC[N@](C2)C[C@@H]31 [Example 19, ((2S,3aS,6R,7aR)-hexahydro-2,6-methanopyrrolo[2,3-c]pyridin-1(2H)-yl)(5-phenyl-1H-pyrazol-3-yl)methanone]"
4,26 µM,"O=C(c1cc(C2CC2)[nH]n1)N1[C@H]2C[C@@H]3CC[N@](C2)C[C@@H]31 [Example 20, ((2S,3aS,6R,7aR)-hexahydro-2,6-methanopyrrolo[2,3-c]pyridin-1(2H)-yl)(5-cyclopropyl-1H-pyrazol-3-yl)methanone]"
5,0.08 µM,"O=C(c1n[nH]c2cc(F)ccc12)N1[C@H]2C[C@@H]3CC[N@](C2)C[C@@H]31 [Example 21, (6-fluoro-1H-indazol-3-yl)((2S,3aS,6R,7aR)-hexahydro-2,6-methanopyrrolo[2,3-c]pyridin-1(2H)-yl)methanone]"
6,3.6 µM,"O=C(c1n[nH]c2c(Cl)cccc12)N1[C@H]2C[C@@H]3CC[N@](C2)C[C@@H]31 [Example 22, (7-Chloro-1H-indazol-3-yl)((2S,3aS,6R,7aR)-hexahydro-2,6-methanopyrrolo[2,3-c]pyridin-1(2H)-yl)methanone]"
7,0.039 µM,"Cc1ccc2c(C(=O)N3[C@H]4C[C@@H]5CC[N@](C4)C[C@@H]53)n[nH]c2c1 [Example 23, (6-methyl-1H-indazol-3-yl)((2S,3aS,6R,7aR)-hexahydro-2,6-methanopyrrolo[2,3-c]pyridin-1(2H)-yl)methanone]"

row,Structure (SMILES),EC50
1,"O=C(c1n[nH]c2ncccc12)N1[C@H]2C[C@@H]3CC[N@](C2)C[C@@H]31 [Example 24, ((2S,3aS,6R,7aR)-hexahydro-2,6-methanopyrrolo[2,3-c]pyridin-1(2H)-yl)(1H-pyrazolo[3,4-b]pyridin-3-yl)methanone]",1.3 µM

# Same assay, conditions: Table 3; Ca2+ flux, HEK-293 cells expressing the channel
row,EC50,Structure (SMILES)
1,0.086 µM,"O=C(c1n[nH]c2cc(Cl)ccc12)N1[C@@H]2C[C@H]3CC[N@@](C2)C[C@H]31 [Example 16, (6-chloro-1H-indazol-3-yl)((2R,3aR,6S,7aS)-hexahydro-2,6-methanopyrrolo[2,3-c]pyridin-1(2H)-yl)methanone]"
2,0.43 µM,"O=C(c1n[nH]c2cc(F)ccc12)N1[C@@H]2C[C@H]3CC[N@@](C2)C[C@H]31 [Example 26, (6-fluoro-1H-indazol-3-yl)((2R,3aR,6S,7aS)-hexahydro-2,6-methanopyrrolo[2,3-c]pyridin-1(2H)-yl)methanone]"
3,> 100 µM,"O=C(c1cc(C2CC2)[nH]n1)N1[C@@H]2C[C@H]3CC[N@@](C2)C[C@H]31 [Example 27, ((2R,3aR,6S,7aS)-hexahydro-2,6-methanopyrrolo[2,3-c]pyridin-1(2H)-yl)(5-cyclopropyl-1H-pyrazol-3-yl)methanone]"
4,36 µM,"O=C(c1n[nH]c2c(Cl)cccc12)N1[C@@H]2C[C@H]3CC[N@@](C2)C[C@H]31 [Example 28, (7-chloro-1H-indazol-3-yl)((2R,3aR,6S,7aS)-hexahydro-2,6-methanopyrrolo[2,3-c]pyridin-1(2H)-yl)methanone]"

row,Structure (SMILES),EC50
1,"O=C(c1nccc2ccccc12)N1[C@@H]2C[C@H]3CC[N@@](C2)C[C@H]31 [Example 25, ((2R,3aR,6S,7aS)-hexahydro-2,6-methanopyrrolo[2,3-c]pyridin-1(2H)-yl)(isoquinolin-1-yl)methanone]",45 µM
